From patent publication US20070212717A1, “Method for Inhibiting Hepatitis C Virus Replication” (priority 2006, published 2007)

Assays:
[1] = tested on: hepatitis C virus; conditions: two day clinical trial; cited from earlier work
[2] = tested on: PIK4CA transcript; test: siRNA transfection of MP1 cells, real-time RT-PCR of PIK4CA transcript levels; format: cell-based, human
From the text: In order to confirm that knockdown of PI4K inhibits HCV RNA replication, an independent method of suppressing the host gene using siRNA synthetic oligonucleotides, is implemented. […] The effect is specific in that transfection of non-specific oligonucleotides elicits no effect on HCV RNA replication. For the siRNA oligo transfection experiments, the MP1 cells (human hepatoma Huh-7 cell line harboring HCV RNA replicon with a luciferase reporter gene, as described above) are also used. Cells are maintained in DMEM High glucose (Wisent Inc.) supplemented with 10% fetal bovine serum (FBS; HyClone) containing neomycin (250 μg/ml) (Geneticin; Invitrogen). The assay medium lacks the neomycin. […]
(§1) The negative control corresponds to a no match NS5B sequence (AAGAGAGUCAGUCAGCUAAUCAC) [SEQ ID NO. […] Moreover, RNA is also isolated (using the 96-well Qiagen extraction method as described in example 1) from a replicate plate of transfected cells such that real-time RT-PCR quantifying HCV replicon copy number (as described in example 1) and cellular transcript RNA levels are performed. The method of quantifying host transcript RNA levels is similar to HCV RNA quantification except that the primers and the TaqMan probe are specific for the PIK4CA gene. […]
A standard curve for a relative quantification of PIK4CA transcript expression per μg total RNA is established for each transcript. […]

[3] = tested on: HCV RNA replicon; test: siRNA transfection of MP1 cells, HCV replicon luciferase assay; format: cell-based, hepatitis C virus; conditions: luciferase reporter or HCV RNA
Method: The “Luciferase assay system” from Promega is used to measure firefly luciferase (reporter) expression in the MP1 cell line in a 96-well format with the following protocol: • Prepare the Luciferase assay reagent by adding Luciferase assay buffer to the vial containing the lyophilized Luciferase assay substrate • Prepare 1× Luciferase cell culture lysis reagent by adding 4 volumes of water to 1 volume of 5× lysis buffer • Carefully remove the assay medium from cells • Rinse cells with 100 μl PBS buffer being careful to not dislodge attached cells • A black backing tape (Packard) is applied on bottom side of the 96-well black clear bottom plate. • Aliquot 30 μl/well of 1× Luciferase cell culture lysis reagent • Incubate at room temperature 10 minutes minimum • Aliquot 150 μl/well of Luciferase assay reagent and immediately measure the light produced on a TopCount NXT Instrument (Packard) (count time=2 s/well) […]
as §1, with “performed.” for “performed. The method of quantifying host transcript RNA levels is similar to HCV RNA quantification except that the primers and the TaqMan probe are specific for the PIK4CA gene.”

| Molecule | viral loads in patients infected with the hepatitis C virus [1] | effect on PIK4CA transcript levels ([2]; controls (siRNA 10 nM; BILN 2061 100 nM)) | reduction of PIK4CA transcript levels ([2]; 10 nM siRNA, RT-PCR, relative to DharmaFECT only) | inhibition of HCV replicon levels [3] |
| --- | --- | --- | --- | --- |
| COc1ccc2c(O[C@@H]3C[C@H]4C(=O)N[C@]5(C(=O)O)C[C@H]5/C=C\CCCCC[C@H](NC(=O)OC5CCCC5)C(=O)N4C3)cc(-c3csc(NC(C)C)n3)nc2c1 [BILN2061] | effective in rapidly reducing viral loads | no effect | – | – |
| PIK4CA siRNA #9: siRNA (si Genome duplex, Dharmacon) with defined sequence # 9 targeting a segment on the host transcript (GCAGAAATTTGGCCTGTTT; listed as DNA, further chemistry not given here) | – | – | ~25% | proportionally lower inhibition |
